# Results as given in BindingDB's records for doi:10.1021/jm00085a017 (Institute of Research, 1992).
# Experiment: Inhibition of the release of Alpha-amylase from rat pancreatic acinar cells.
row,Structure (SMILES),IC50
1,CCN(CC)CCCCCOC(=O)C(C)(c1ccccc1)C1CCCCC1 (centres undefined),2700 nM
2,CCN(CC)CCCOC(=O)C(C)(c1ccccc1)C1CCCCC1 (centres undefined),21 nM
3,CN(C)CCCOC(=O)C(C)(c1ccccc1)C1CCCCC1 (centres undefined),10 nM
4,CCN(CC)CCOC(=O)C(C)(c1ccccc1)C1CCCCC1 (centres undefined),52 nM
